The test system of test [1] is HIV. The test can be described thus: NCI in vitro anti-HIV screen (XTT soluble-formazan assay, protection of HIV-infected CEM cells). Format: cell-based. From the text:
The National Cancer Institute's procedure for testing for agents active against Human Immunodeficiency Virus (HIV) (Weislow, O. W. et al, "New soluble-formazan assay for HIV-1 cytopathic effects: application to high-flux screening of synthetic and natural products for AIDS-antiviral activity," J. Natl. Cancer Inst., 81, 577-586, 1989) is designed to detect agents acting at any stage of the virus reproductive cycle. The assay includes the killing of T4 lymphocytes by HIV. Pursuant to the test, small amounts of HIV are added to cells, and a complete cycle of virus reproduction is necessary to obtain the required cell killing. Agents that interact with virions, cells, or virus gene-products to interfere with viral activities will protect cells from cytolysis. The system is thus designed to detect anti-HIV activity. However, compounds that degenerate or are rapidly metabolized in the culture conditions may not show activity in this screen. All tests are compared with at least one positive (e.g., AZT-treated) control done at the same time under identical conditions.
(§1) 1. The candidate agent is dissolved in dimethyl sulfoxide (unless otherwise instructed), then diluted 1:200 in cell culture medium. Further dilutions (half-log10) are prepared before adding to 96-well microtiter plates.
(§2) 2. T4 lymphocytes (CEM cell line) are exposed to HIV at a virus-to-cell ratio of approximately 0.05 and are plated along with non-infected control cells into drug-containing wells or wells with medium alone.
(§3) 3. Cultures are incubated at 37° in a 5% carbon dioxide atmosphere for 6 days.
(§4) 4. The tetrazolium salt, XTT, is added to all wells, and cultures are incubated to allow formazan color development by viable cells.
(§5) 5. […] are analyzed spectrophotometrically to quantitate formazan production and, in addition, are viewed microscopically for detection of viable cells and confirmation of protective activity.
(§6) 6. Drug-treated virus-infected cells are compared with drug-treated non-infected cells and with other appropriate controls (untreated infected and untreated non-infected cells, drug-containing wells without cells, etc.) on the same plate.
(§7) 7. Data are reviewed in comparison with other tests performed at the same time, and a determination about activity is made.
Approximate values for 50% effective concentration (EC50) (protection in infected cells), 50% inhibitory concentration (IC50) and the therapeutic index (IC50 /EC50) have been calculated for each test and are provided in the tables of each Example.
Examples 1, 6 and 8 compounds, respectively, against the measured test values expressed as a percentage of the uninfected, untreated control values. The solid line depicts the percentage of surviving HIV-infected cells treated with sample (at the indicated concentration) relative to uninfected, untreated controls. The solid line expresses the in vitro anti-HIV activity of the compound of the tested compound. The dashed line depicts the percentage of surviving uninfected cells treated with the compound of the Example relative to the same uninfected, untreated controls. The dashed line expresses the in vitro growth inhibitory properties of the compound of the Example. The viral cytopathic effect of a compound of each Example is indicated by a combination of dashes and dots. […] Survival values of this parameter less then 50% are considered acceptable in the current protocol.
(In general: Tetrazolium dyes change colour on reduction, which living cells bring about.)

The test system of test [2] is T4 lymphocytes (CEM cell line). The test can be described thus: NCI in vitro anti-HIV screen, growth inhibition of uninfected CEM cells (XTT). Format: cell-based. As to conditions: read-out: IC50 (50% inhibitory concentration). On the procedure: The assay includes the killing of T4 lymphocytes by HIV. Pursuant to the test, small amounts of HIV are added to cells, and a complete cycle of virus reproduction is necessary to obtain the required cell killing. Agents that interact with virions, cells, or virus gene-products to interfere with viral activities will protect cells from cytolysis. The system is thus designed to detect anti-HIV activity. However, compounds that degenerate or are rapidly metabolized in the culture conditions may not show activity in this screen. All tests are compared with at least one positive (e.g., AZT-treated) control done at the same time under identical conditions.
as §1, §2, §3, §4, §5, §6, §7
Survival values of this parameter less then 50% are considered acceptable in the current protocol.

Test [3] deals with HIV. The test can be described thus: in vitro testing for infectious particles. Type of test: cell-based.
In the next test the test system is reverse transcriptase. The test can be described thus: reverse transcriptase assay of cell-free supernatant. Format: cell-based, HIV. As to conditions: in vitro. On the procedure: (§8) Activity was also examined by determination of p24 and reverse transcriptase concentrations.
Reverse transcriptase assays were performed according to the method of Hoffman et al, Virology, 147, 326-335 (1985), with minor modifications. Briefly, 15 µl of cell-free supernatant was mixed with 10 μl of RT reaction buffer. The total 25 μl reaction mixture consisted of 2.5 μCi of tritated thymidine triphosphate (TTP) (ICN, 80 Ci/mmol), poly rA (50 ng/ml):oligo dT (10 ng/ml) template:primer (Pharmacia), 10 mM Tris, pH 7.6, 8 mM magnesium chloride, 10 mM dithiothreitol (DTT), and, in the standard reaction, 0.5% Triton X-100. Assays were performed in the absence of added EGTA unless indicated. When EGTA (Sigma) was added it was at a concentration of 1 mM. The reactions were incubated for 60 minutes at 37° C. The reaction volume was then spotted onto DE81 chromatography paper (Whatman), washed extensively in 5% dibasic sodium phosphate, and counted for incorporated radioactivity in a toluene-based scintillation cocktail. Assays were also performed to measure the presence of a nuclease activity associated with HIV virions. […] The HIV virion sample was added to the AMV RT reaction product and the amount of radioactivity able to bind to DE81 paper was monitored after varying times of incubation at 37° C. […]

The next test relates to HIV-1 p24. The test can be described thus: p24 antigen-capture assay. Format: cell-based. As to conditions: in vitro. On the procedure: as §8
To determine p24, a p24 antigen-capture assay was used. Culture fluids harvested from drug test plates or other sources were diluted 1:100 in 10% triton X-100 and stored frozen at -70° C. 200 μL aliquots of the triton treated samples were added in duplicate to microtiter wells previously coated with rabbit polyclonal anti-HIV-1 p24 serum and incubated at room temperature overnight. After washing and blotting, 100 μL of biotinylated polyclonal anti-HIV p-24 was added to each of the appropriate wells, and the plates were re-incubated at 37° C. for 60 minutes. A solution of streptavidin-horseradish peroxidase was added after additional washing and blotting. The contents of each plate were mixed and reincubated for 15 minutes at room temperature and, after washing and blotting, the o-phenylenediamine dihydrochloride substrate was added in 100 μL aliquots. Color was allowed to develop in the dark room at room temperature for 30 minutes, and the reaction was halted by the addition of 4 N H2 SO4. Optical density was measured at 490 nm, and the concentration of p24 was determined by comparison with a standard curve of known concentrations of p24. Eislow, O., et al., J. Nat'l Cancer Inst., 81 (8):577-86 (1989).

Where [4] appears, read: Human immunodeficiency virus 1, CCRF-CEM, 144 h, HIV-infected CEM cells, 6 days, XTT; approximate values; one value per run; read-out: EC50 (50% effective concentration, protection in infected cells).
Setting [5] is: ratio IC50/EC50 of the same run.
[6] abbreviates: Homo sapiens, CCRF-CEM, 144 h, drug-treated uninfected CEM cells, 6 days, XTT, approximate values, one value per run.

Structures are written as SMILES. “And” between values parts separate entries of the source, which are not always exact repeats. Identical values can stand only once. “Also recorded” adds a separate entry of the source. Like-named read-outs stand apart in the source and are kept apart here.

With `CC(C)CCC[C@@H](C)[C@H]1CC[C@H]2[C@@H]3CC[C@H]4C[C@@H](CCC=C(c5cc(Cl)c(O)c(C(=O)O)c5)c5cc(Cl)c(O)c(C(=O)O)c5)CC[C@]4(C)[C@H]3CC[C@]12C` [Formula IV, 1,1-di(3'-ammoniumcarboxy-5'-chloro-4'-hydroxy)phenyl-4-(3β)-cholestanyl-1-butene], the “anti-HIV effect (statement)” value with HIV [1] (NCI anti-HIV screen, in vitro, CEM cells) is listed as “greatest effect on inhibiting HIV-infected cells, while having a lesser effect on uninfected cells”; with HIV [1] (NCI anti-HIV screen, in vitro, CEM cells; listed as Cosalane), “highly effective anti-HIV agent in vitro; also recorded: most effective compounds studied in terms of prevention of the cytopathic effect of HIV in CEM lymphocytes”. Moreover, the EC50 in the test with HIV [1] (read-out: EC50 (50% effective concentration, protection in infected cells); HIV-infected CEM cells, 6 days, XTT; approximate values; one value per run) was 6.7 µM. In addition, the IC50 in test [2] (Homo sapiens, CCRF-CEM, 144 h) is more than 310 µM. For the same compound, in the test on HIV [3], the “infectious particles (FIG. 2)” value was “indicating anti-HIV activity”. The “reverse transcriptase activity (FIG. 4)” value in the test on reverse transcriptase was “indicating anti-HIV activity”. For the same compound, the “p24 (FIG. 3)” value in the test on HIV-1 p24 is “indicating anti-HIV activity”.

With `CCCCCCCCCC=C(c1cc(Br)c(O)c(C(=O)O)c1)c1cc(Br)c(O)c(C(=O)O)c1` [Formula XX, 1,1-di(3'-ammoniumcarboxy-5'-bromo-4'-hydroxy)phenyl-1-undecene], the EC50 in the test on HIV [1] (setting [4]) was 55.5 µM. The “TI50 (IC/EC), therapeutic index” value with HIV [1] (setting [5]) was > 3.44 × 10^0. The IC50 in test [2] (setting [6]) is more than 191 µM.

Consider `COC(=O)c1cc(C(=CCCBr)c2cc(Cl)c(OC)c(C(=O)OC)c2)cc(Cl)c1OC` [Formula XIX, 4-bromo-1,1-di(3'-carbomethoxy-5'-chloro4'-methoxy)phenyl-1-butene], for which the EC50 in the test with HIV [1] (HIV-infected CEM cells, 6 days, XTT; approximate values; one value per run; read-out: EC50 (50% effective concentration, protection in infected cells)) is 7.73 µM; in the test with HIV [1] (setting [4]) it was 8.19 µM. For the same compound, the “TI50 (IC/EC), therapeutic index” value in the test on HIV [1] (setting [5]) is 2.62 × 10^0 and 1.96 × 10^0. Besides, the IC50 in test [2] (setting [6]) is 21.5 µM; in test [2] (drug-treated uninfected CEM cells, 6 days, XTT, approximate values, one value per run), 15.2 µM.

Turning to `CCCCCC=C(c1cc(Br)cc(C(=O)O)c1O)c1cc(Br)cc(C(=O)O)c1O` [Formula XV], the EC50 in the test on HIV [1] (setting [4]) was 15.3 µM. Moreover, the “TI50 (IC/EC), therapeutic index” value with HIV [1] (setting [5]) is recorded as > 1.43 × 10^0. For the same compound, the IC50 in test [2] (setting [6]) is more than 21.8 µM.

For the origin of these results see patent US5439899A, “Cosalane and related compounds having activity against aids and aids-related infections” (priority 1993, dated 1995).
